Where two headings read alike, the source gives them in different places.

The nature of data set [1]: In vivo pharmacokinetic study of oral HCPT in rats with or without verapamil pre-treatment. The following applies: male, Sprague-Dawley, rat, plasma, 50 mg/kg, HCPT 50 mg/kg intragastric/oral, n = 6, Mean ± S.D.; for CL/F: read-out: CLz/F (oral clearance) (converted). On the procedure:
Male Sprague–Dawley rats weighing 230–250 g were provided by Shanghai SLAC Laboratory Animal Co., Ltd (Shanghai, China). Rats were bred in a breeding room at 25 °C with 60 ± 5% humidity and a 12 h dark-light cycle. Tap water and normal chow were given ad libitum. All of the experimental animals were housed under the above conditions, for a 3-day acclimation period and fasted overnight before the experiments. All experimental procedures and protocols were reviewed and approved by the Animal Care and Use Committee of China–Japan Union Hospital of Jilin University and were in accordance with the National Institutes of Health guidelines regarding the principles of animal care.
Rats were divided into two groups of six animals each, with or without pre-treatment of verapamil. The pre-treatment of verapamil on the test group was at a dose of 10 mg/kg/day (dissolved directly in normal saline containing 0.5% methylcellulose at a concentration of 2 mg/mL) for 7 days. Next, 50 mg/kg HCPT was administrated orally. Blood samples (200 μL) were collected into heparinized tubes via the oculi choroidal vein at 0.083, 0.33, 0.5, 1, 2, 4, 6, 8, 10, 12, 24, and 36 h after the oral administration of […]. The blood samples were centrifuged at 3500 rpm for 5 min. The plasma samples that were obtained were stored at −40 °C until analysis.
To obtain 100 μL aliquot of plasma sample, 20 μL methanol and 180 μL internal standard methanol solution (2 ng/mL) were added and vortexed for 60 s to mix in a 1.5 mL polypropylene tube, and were centrifuged at 12,000 rpm for 10 min. The supernatant was removed into an injection vial, and a 3 μL aliquot was injected into the LC-MS/MS system for analysis.
The determination of HCPT was performed on an Agilent 1290 series liquid chromatography system and an Agilent 6470 triple-quadruple mass spectrometer (Palo Alto, CA). The HPLC/MS conditions and sample preparation were basically according to a validated HPLC method described before (Zhang et al. [2019]). The chromatographic analysis of HCPT was performed on a Waters X-Bridge C18 column (3.0 × 100 mm, i.d.; 3.5 μm, Waters Corporation, Milford, MA ) at room temperature (25 °C). The mobile phase was water (containing 0.1% formic acid) and acetonitrile (30:70, v: v) with isocratic elution at a flow rate of 0.2 mL/min, and the analysis time was 4 min.
The mass scan mode was positive MRM mode. The precursor ion and product ion are m/z 365.20→321.10 for HCPT and m/z 349.25→305.15 for IS. The collision energy for HCPT and IS were 30 and 20 eV, respectively. The MS/MS conditions were optimized as follows: fragmentor, 110 V; capillary voltage, 3.5 kV; Nozzle voltage, 500 V; nebulizer gas pressure (N2), 40 psig; drying gas flow (N2), 10 L/min; gas temperature, 350 °C; sheath gas temperature, 400 °C; sheath gas flow, 11 L/min.
Pharmacokinetic parameters, including the area under the plasma concentration–time curve (AUC), maximal plasma concentration (Cmax), the time for the maximal plasma concentration (Tmax), and the mean residence time (MRT), were calculated using the DAS 3.0 pharmacokinetic software (Chinese Pharmacological Association, Anhui, China).

Data set [2] can be described thus: Bidirectional transport of HCPT in the Caco-2 cell transwell model with or without verapamil. The following applies: human; for efflux ratio at 2 µM: Caco-2, pH 7.4, efflux ratio, Caco-2 transwell, HCPT 2 μM. On the procedure: (§1) The Caco-2 cell line was obtained from the American Type Culture Collection (Manassas, VA), and it was performed according to the previous study (Liu et al. [2019]). The Caco-2 cells were cultured in DMEM high glucose medium containing 15% FBS, 1% NEAA, and 100 U/mL penicillin and streptomycin. The cells were cultured at 37 °C with 5% CO2. For transport studies, the cells at passage 40 were seeded on transwell polycarbonate insert filters (1.12 cm^2 surface, 0.4 μm pore size, 12 mm diameter; Corning Co-star Corporation, Corning, MA) in 12-well plates at a density of 1 × 10^5 cells/cm^2. Cells were allowed to grow for 21 days. For the first seven days, the medium was replaced every two days, and then daily. The transepithelial electrical resistance (TEER) of the monolayer cells was measured using Millicell ERS-2 (Millipore Corporation, Billerica, MA), and TEER exceeding 400 Ω·cm^2 was used for the flux experiment. […] The alkaline phosphatase activity was validated using an Alkaline Phosphatase Assay Kit. The qualified monolayers were used for transport studies.
(§2) The Caco-2 cell transwell model was employed to investigate the transport of HCPT in the presence or absence of verapamil. The cell monolayers were rinsed twice with warm (37 °C) Hanks’ balanced salt solution (HBSS) before the transport experiments. After that, the cells were incubated at 37 °C for 20 min. HCPT was added to either apical or basolateral side to incubate with the cell monolayers in fresh incubation medium for the indicated times at 37 °C, after preincubation. The volume of incubation medium on the apical and basolateral sides was 0.5 mL and 1.5 mL, respectively, and a 100 μL aliquot of the incubation solution was withdrawn at the indicated time points from the receiver compartment and replaced with the same volume of fresh pre-warmed HBSS buffer. The permeability of HCPT (2 μM) in all of the above conditions for both directions, i.e., from the apical (AP) side to the basolateral (BL) side and from the BL side to the AP side, was measured after incubation for 30, 60, 90, and 120 min at 37 °C. In addition, the efflux activity of P-gp was validated using a typical P-gp substrate digoxin (25 μM).
(§3) The apparent permeability coefficient (Papp) was calculated using the equation of Artursson and Karlsson: Papp=(ΔQ/Δt)×[1/(A×C0)] where Papp is the apparent permeability coefficient (cm/s), ΔQ/Δt (μmol/s) is the rate at which the compound appears in the receiver chamber, C0 (μmol/L) is the initial concentration of the compound in the donor chamber, and A (cm^2) represents the surface area of the cell monolayer. Data were collected from three separate experiments, and each was performed in triplicate.
(In general: Caco-2 cells form a polarised layer with tight junctions and transporters.)

Data set [3] in a line: Metabolic stability of HCPT in rat liver microsomes with or without verapamil. Format: in vitro ADME. The following applies: for microsomal CLint at 1 µM: read-out: intrinsic clearance rate. On the procedure: The metabolic stability of HCPT was investigated in rat liver microsomes with or without verapamil. The detailed methods were similar to those reported before (Wang et al. [2017]; Yan et al. [2017]). Briefly, 30 μL rat liver microsome (20 mg/mL), 12 μL HCPT solution (100 μM) and 1113 μL PBS buffer (0.1 M, pH 7.4) were added to the centrifuge tubes on ice. After a 5-min preincubation at 37 °C, the NADPH-generating system (45 μL) was added into the microsomal suspension to initiate the reaction. Meanwhile, the effects of verapamil or ketoconazole (a positive CYP3A4 inhibitor) on the metabolic stability of HCPT were investigated by adding 10 μM of verapamil or ketoconazole (12 μL, final concentration of 0.1 μM) to rat liver microsomes and preincubating them for 30 min at 37 °C, followed by the addition of NADPH-generating system. Aliquots of 100 μL were collected from the reaction volumes at 0.083, 0.167, 0.33, 0.5, 1, 2, 4, 8, 12, 24, and 36 h after the addition of HCPT, and 200 μL ice-cold acetonitrile containing esculin was added to terminate the reaction. All the experiments were performed in triplicate. The subsequent sample preparation method was the same as the plasma sample preparation method, and the concentration of HCPT was determined by LC-MS.
The in vitro half-life (t1/2) was obtained using the equation: t1/2 = 0.693/k; V (μL/mg) = volume of incubation (μL)/protein in the incubation (mg); intrinsic clearance (Clint) (μL/min/mg protein) = V × 0.693/t1/2.
Background: Microsomes from liver hold many membrane-bound enzymes, among them those of drug oxidation.

The next data set relates to P-gp. Briefly: Bidirectional transport of HCPT in the Caco-2 cell transwell model with or without verapamil. The following applies: human, Caco-2, efflux ratio, Caco-2 transwell, digoxin 25 μM (P-gp substrate validation), without verapamil. On the procedure:
as §1, §2, §3

Another data set has as its system Caco-2 cell monolayers. Described as above. The following applies: Caco-2 transwell, digoxin 25 μM, with addition of verapamil. On the procedure:
as §1, §2, §3

The mark [4] stands for this setting: pre-treatment of verapamil 10 mg/kg/day for 7 days.
Where [5] appears, read: pH 7.4, with verapamil, final concentration 0.1 µM, in the presence of verapamil (preincubation 30 min at 37 °C).

As to `CC[C@@]1(O)C(=O)OCc2c1cc1n(c2=O)Cc2cc3cc(O)ccc3nc2-1` [HCPT, Hydroxycamptothecin], in data set [1] (control (no verapamil)), the AUC(0-t) (commonly the area under the concentration-time curve up to a stated or last time point) worked out at 660 ± 100 ng·h/mL; the Cmax (in general, the peak of the concentration-time curve) stood at 92 ± 11.3 ng/mL; the MRT (commonly a mean duration of stay, worked out from the concentration-time curve) was found to be 9.61 ± 0.55 h; the Tmax – broadly, the time at which the peak concentration occurs – turned out to be 1.12 ± 0.14 h. In data set [1] (control (no verapamil)), the half-life – broadly, the time needed for the level to fall by half in the phase considered – was 1060 ± 216 min and the CL/F was 1060 mL/min/kg. In data set [1] (setting [4]), the AUC(0-t) turned out to be 1140 ± 290 ng·h/mL, the Cmax was found to be 125 ± 13.5 ng/mL, the MRT was determined as 11.4 ± 0.78 h and the Tmax stood at 0.89 ± 0.09 h. Besides, in data set [1] (setting [4]), the half-life was 1380 ± 403 min and the CL/F was 549 mL/min/kg. Further, in data set [2] (Caco-2, pH 7.4), the Papp B→A (as a rule, how fast a substance crosses the layer from the basolateral side) at 2 μM turned out to be 0.205 ×10⁻⁶ cm/s. For the same molecule, in data set [2] (in the presence of verapamil), the efflux ratio (commonly a quotient of directional permeabilities that is used to spot active efflux) at 2 µM was 1.21. Also, the efflux ratio at 2 µM in data set [2] (without verapamil) was 1.82. Moreover, in data set [3] (setting [5]), the half-life at 1 µM came to 48.4 ± 0.51 min and the microsomal CLint at 1 µM was found to be 28.6 ± 0.3 µL/min/mg. In data set [3] (pH 7.4, without verapamil), the half-life at 1 µM was 35.1 ± 0.32 min and the microsomal CLint at 1 µM turned out to be 39.5 ± 0.42 µL/min/mg.

Turning to `C[C@H]1O[C@@H](O[C@H]2[C@@H](O)C[C@H](O[C@H]3[C@@H](O)C[C@H](O[C@H]4CC[C@@]5(C)[C@H](CC[C@@H]6[C@@H]5C[C@@H](O)[C@]5(C)[C@@H](C7=CC(=O)OC7)CC[C@]65O)C4)O[C@@H]3C)O[C@@H]2C)C[C@H](O)[C@@H]1O` [digoxin], the efflux ratio at 25 µM in the data set on P-gp stood at 11. Further, in the data set with Caco-2 cell monolayers, the “efflux ratio, effect of addition of verapamil” value is “abrogated it”.
